# Like-named read-outs stand apart in the source and are kept apart here.
# How the values were obtained:
# healthy people = experiment: Glycemic Index (GI) test, two-hour blood glucose response vs glucose reference; format: in vivo, humans; settings: when added to sugar; conclusion of Example 11
# Method: This study was conducted by the Human Nutrition Unit at the University of Sydney using internationally recognised GI methodology, which has been validated by results obtained from small experimental studies and large multi-centre research trials. The experimental procedures used in this study were in accordance with international standards for conducting ethical research with humans and were approved by the Human Research Ethics Committee of Sydney University.
# Using standard methodology to determine a food's GI value, a portion of the food containing between 10 and 50 grams of available carbohydrate is fed to 10 healthy people the morning after they have fasted for 10-12 hours overnight. A fasting blood sample is first obtained from each person and then the food is consumed, after which additional blood samples are obtained at regular intervals during the next two hours. In this way, it's possible to measure the total increase in blood sugar produced by that food over a two-hour period. […]
# For each subject, the concentration of glucose in each of the eight whole blood samples collected from them during each test session was analysed in duplicate using a HemoCue® B-glucose photometric analyser employing a glucose dehydrogenase/mutarotase enzymatic assay (HemoCue AB, Ängelholm, Sweden). […] Therefore, each blood sample was analysed immediately after it was collected. […]
# [1] = scale 1 to 100, glucose rated 100, cited from earlier work
Structure (SMILES),effect on the GI of sugar (healthy people),glycemic index (GI) [1],glycemic index (GI) ([1]; listed as table sugar)
O=C[C@H](O)[C@@H](O)[C@@H](O)[C@H](O)CO [galactose],reduces the GI to a low level,–,–
O=C(CO)[C@@H](O)[C@H](O)[C@H](O)CO [fructose],–,23,–
OC[C@H]1O[C@@](CO)(O[C@H]2O[C@H](CO)[C@@H](O)[C@H](O)[C@H]2O)[C@@H](O)[C@@H]1O [sucrose],–,about 65,65

# From US9161562B2, “Natural sweetener” (Horizon Science Pty Ltd, priority 2004, dated 2015)
